Data taken from ChEMBL document CHEMBL3046330, “Synthesis and biological activity of hydrazidehydrazones and their corresponding 3-acetyl-2,5-disubstituted-2,3-dihydro-1,3,4-oxadiazoles” (Med Chem Res, 2012).
≈ marks a conversion by molar mass, not a printed value.

Key:
Format in all cases: functional
[1] = tested on: Candida albicans; test: Antifungal activity against Candida albicans NRRL Y-12983 after 24 hr by NCCLS broth microdilution method; conditions: NRRL Y-12983, 24 h
[2] = tested on: Nakaseomyces glabratus; test: Antifungal activity against Candida glabrata clinical isolate after 24 hr by NCCLS broth microdilution method
[3] = tested on: Candida parapsilosis; test: Antifungal activity against Candida parapsilosis NRRL Y-12696 after 24 hr by NCCLS broth microdilution method; conditions: Lodderomyces parapsilosis, NRRL Y-12696, 24 h
[4] = tested on: Pichia kudriavzevii; test: Antifungal activity against Pichia kudriavzevii NRRL Y-7179 after 24 hr by NCCLS broth microdilution method; conditions: NRRL Y-7179, 24 h
[5] = tested on: Candida tropicalis; test: Antifungal activity against Candida tropicalis NRRL Y-12968 after 24 hr by NCCLS broth microdilution method; conditions: NRRL Y-12968, 24 h
[6] = tested on: Cyberlindnera jadinii; test: Antifungal activity against Cyberlindnera jadinii NRRL Y-900 after 24 hr by NCCLS broth microdilution method; conditions: Williopsis jadinii, NRRL Y-900, 24 h
[7] = tested on: Candida albicans; test: Antifungal activity against Candida albicans ATCC 90028 after 24 hr by NCCLS broth microdilution method; conditions: ATCC 90028, 24 h
[8] = tested on: Candida albicans; test: Antifungal activity against Candida albicans clinical isolate after 24 hr by NCCLS broth microdilution method

## CC(=O)N1CCN(c2ccc(OCC3COC(Cn4ccnc4)(c4ccc(Cl)cc4Cl)O3)cc2)CC1 (stereo not drawn) [KETOCONAZOLE]
[1]
  MIC: 125 µg/mL (≈ 235 µM)
[2]
  MIC: 31 µg/mL (≈ 58.3 µM)
[3]
  MIC: 125 µg/mL (≈ 235 µM)
[4]
  MIC: 62 µg/mL (≈ 117 µM)
[5]
  MIC: 62 µg/mL (≈ 117 µM)
[6]
  MIC: 62 µg/mL (≈ 117 µM)
[7]
  MIC: 62 µg/mL (≈ 117 µM)
[8]
  MIC: 16 µg/mL (≈ 30.1 µM)
